Reference: patent publication US10543223B2, “Mannose derivatives useful for treating pathologies associated with adherent E. coli” (ENTEROME, priority 2015, dated 2020)
Where “and” joins values, the source holds several entries; their conditions need not be identical. Equal entries are not always repeated. Where two headings read alike, the source gives them in different places.

Assays:
[1] = Plasma concentrations and pharmacokinetics after IV and PO administration to rats; format: in vivo, Sprague Dawley rats; settings: for % AUCextra / AUC(0-inf) / AUC(0-t) / Cmax / Tmax: DMSO, based on mean data
Description: Plasma and faeces concentrations after administration of Compound 1b and for compound 13 of WO 2014/016361 at 1 mg/kg by intravenous route and 10 mg/kg by oral route to Sprague Dawley rats
At least 8 point calibration standards are run using standard conditions which consist to LC-MS/MS system with C18 column after precipitation of proteins with acetonitrile before the start of the analytical test.
For the plasma, 100 μL of blank rat plasma are directly spiked with the compounds before being precipitate with 300 μL of acetonitrile.
The concentration ranges tested are: • 0.5 ng/mL to 1000 ng/mL for plasma, • 4 to 2000 ng/g for faeces, corresponding to 1 to 500 ng/mL of faeces homogenate. 3. In-Life Part
12 male Sprague Dawley rats around 6-7 week old are used.
At prescribed times, blood is collected. Animals are briefly anaesthetised with Isoflurane® using an anaesthetic system (Équipement Vétérinaire Minerve) during blood samplings.
Blood samples are centrifuged at 2500 rpm at +4° C. (between 0 and 9° C.), the plasma is removed and placed into labelled polypropylene tubes. Individual plasma samples are stored frozen at −20° C. (target temperature) until analysis.
100 μL of the plasma sample are taken and 300 μL of acetonitrile are added. After protein precipitation, analysis is performed using LC-MS/MS determination according to previous analytical test results.
Concentrations of the samples are calculated directly from chromatograms after automatic integration by Analyst® 1.5.1 and expressed as ng/mL.
Mean plasma concentrations are calculated (when calculable, i.e. n≥2) using individual concentration and are expressed with the corresponding standard deviation value and variation coefficient (when calculable, i.e. n≥3), with
[formula] The individual plasma concentrations are tabulated for each rat and scheduled sampling time. Concentrations below the LLOQ are indicated by BLQ. All BLQ concentrations are substituted by zero for calculation of the descriptive statistics of the concentrations. 5. Results Estimation of pharmacokinetics parameters is performed using Kinetica® (Version 4.3—Thermo Electron Corporation—Philadelphia—USA). It was performed by using a one-compartment model approach, which considers the body as a single compartment in which the concentration is homogeneous. The following parameters are estimated: Cmax (ng/mL): maximal plasma concentration Tmax (h): first time to reach Cmax AUCt (ng/mL*h): area under the plasma concentration-time curve from administration up to the last quantifiable concentration at time t
[formula] “BLQ” stands for “Below the Limit of Quantification” ([…] for plasma). Compound 1b

[2] = Faeces concentrations and recovery after IV and PO administration to rats; format: in vivo, Sprague Dawley rats; settings: 0-24 h; for dose excreted: Sprague Dawley, rat, faeces
Description: Plasma and faeces concentrations after administration of Compound 1b and for compound 13 of WO 2014/016361 at 1 mg/kg by intravenous route and 10 mg/kg by oral route to Sprague Dawley rats Blank rat faeces are homogenized with 3 volumes of UHQ water until obtention of a paste. Then 100 μL of the homogenate are spiked with the molecules and precipitated with 300 μL of acetonitrile. The concentration ranges tested are: • 0.5 ng/mL to 1000 ng/mL for plasma, • 4 to 2000 ng/g for faeces, corresponding to 1 to 500 ng/mL of faeces homogenate. 3. In-Life Part After administration, the animals are placed in individual metabolic cages in order to collect faeces samples during 24 hours. Faeces samples are collected over the 24 hours of the experiment. They are precisely weighed and 3 volumes of UHQ water are added. The mixture is homogeneized until obtention of a paste. Then 100 μL of the homogenate are taken and extracted with 300 μL of Acetonitrile. Analysis is performed using LC-MS/MS determination according to previous analytical test results.

[3] = male, Sprague Dawley, rat, plasma, IV 1 mg/kg
[4] = male, Sprague Dawley, rat, plasma, PO 10 mg/kg
[5] = IV 1 mg/kg, individual rats IV1-IV3, 1 mg/kg
[6] = PO 10 mg/kg, individual rats PO4-PO6, 10 mg/kg

## Cc1nc(-c2cnccn2)sc1C(=O)c1cnc(N[C@H]2O[C@H](CO)[C@@H](O)[C@H](O)[C@@H]2O)s1 [13 of WO 2014/016361]
[1]; IV 1 mg/kg, 0.083 h, individual rats IV1-IV3, 1 mg/kg
  Plasma concentration: 1451.7 ng/mL and 1443.6 ng/mL
[1]; IV 1 mg/kg, 0.5 h, individual rats IV1-IV3, 1 mg/kg
  Plasma concentration: 67.6 ng/mL and 58.5 ng/mL
[1]; IV 1 mg/kg, 2 h, individual rats IV1-IV3, 1 mg/kg
  Plasma concentration: 1.6 ng/mL and 1.8 ng/mL
[1]; IV 1 mg/kg, 6 h, individual rats IV1-IV3
  Plasma concentration: BLQ
[1]; IV 1 mg/kg, 24 h, individual rats IV1-IV3
  Plasma concentration: BLQ
[1]; IV 1 mg/kg
  % AUCextra: 0.11%
[1]; PO 10 mg/kg, 0.5 h, individual rats PO4-PO6, 10 mg/kg
  Plasma concentration: 10.9 ng/mL and 7.0 ng/mL
[1]; PO 10 mg/kg, 1 h, individual rats PO4-PO6, 10 mg/kg
  Plasma concentration: 4.6 ng/mL and 5.4 ng/mL
[1]; PO 10 mg/kg, 2 h, individual rats PO4-PO6, 10 mg/kg
  Plasma concentration: 2.3 ng/mL and 2.0 ng/mL
[1]; PO 10 mg/kg, 6 h, individual rats PO4-PO6, 10 mg/kg
  Plasma concentration: 1.9 ng/mL and 1.6 ng/mL
[1]; PO 10 mg/kg, 24 h, individual rats PO4-PO6
  Plasma concentration: BLQ
[1]; PO 10 mg/kg
  % AUCextra: 32.3%
[1]; male, Sprague Dawley, rat, plasma, iv, 1 mg/kg, IV 1 mg/kg, 0.083 h, individual rats IV1-IV3, read-out: Plasma concentration
  concentration at 0.083 h: 1130 ng/mL
[1]; male, Sprague Dawley, rat, plasma, iv, 1 mg/kg, IV 1 mg/kg, 0.083 h, mean of 3 rats (BLQ = 0), read-out: Plasma concentration, mean
  concentration at 0.083 h: 1340 ng/mL
[1]; male, Sprague Dawley, rat, plasma, iv, 1 mg/kg, IV 1 mg/kg, 0.5 h, individual rats IV1-IV3, read-out: Plasma concentration
  concentration at 0.5 h: 56.1 ng/mL
[1]; male, Sprague Dawley, rat, plasma, iv, 1 mg/kg, IV 1 mg/kg, 0.5 h, mean of 3 rats (BLQ = 0), read-out: Plasma concentration, mean
  concentration at 0.5 h: 60.8 ng/mL
[1]; male, Sprague Dawley, rat, plasma, iv, 1 mg/kg, IV 1 mg/kg, 2 h, individual rats IV1-IV3, read-out: Plasma concentration
  concentration at 2 h: 1.6 ng/mL
[1]; male, Sprague Dawley, rat, plasma, iv, 1 mg/kg, IV 1 mg/kg, 2 h, mean of 3 rats (BLQ = 0), read-out: Plasma concentration, mean
  concentration at 2 h: 1.6 ng/mL
[1]; male, Sprague Dawley, rat, plasma, iv, 1 mg/kg, IV 1 mg/kg, 6 h, mean of 3 rats (BLQ = 0), read-out: Plasma concentration, mean
  concentration at 6 h: 0 ng/mL
[1]; male, Sprague Dawley, rat, plasma, iv, 1 mg/kg, IV 1 mg/kg, 24 h, mean of 3 rats (BLQ = 0)
  concentration at 24 h: 0 ng/mL
[1]; male, Sprague Dawley, rat, plasma, po, 10 mg/kg, PO 10 mg/kg, 0.5 h, individual rats PO4-PO6, read-out: Plasma concentration
  concentration at 0.5 h: 5.5 ng/mL
[1]; male, Sprague Dawley, rat, plasma, po, 10 mg/kg, PO 10 mg/kg, 0.5 h, mean of 3 rats (BLQ = 0), read-out: Plasma concentration, mean
  concentration at 0.5 h: 7.8 ng/mL
[1]; male, Sprague Dawley, rat, plasma, po, 10 mg/kg, PO 10 mg/kg, 1 h, individual rats PO4-PO6, read-out: Plasma concentration
  concentration at 1 h: 3.3 ng/mL
[1]; male, Sprague Dawley, rat, plasma, po, 10 mg/kg, PO 10 mg/kg, 1 h, mean of 3 rats (BLQ = 0), read-out: Plasma concentration, mean
  concentration at 1 h: 4.4 ng/mL
[1]; male, Sprague Dawley, rat, plasma, po, 10 mg/kg, PO 10 mg/kg, 2 h, individual rats PO4-PO6, read-out: Plasma concentration
  concentration at 2 h: 1.9 ng/mL
[1]; male, Sprague Dawley, rat, plasma, po, 10 mg/kg, PO 10 mg/kg, 2 h, mean of 3 rats (BLQ = 0), read-out: Plasma concentration, mean
  concentration at 2 h: 2 ng/mL
[1]; male, Sprague Dawley, rat, plasma, po, 10 mg/kg, PO 10 mg/kg, 6 h, individual rats PO4-PO6, read-out: Plasma concentration
  concentration at 6 h: 1.7 ng/mL
[1]; male, Sprague Dawley, rat, plasma, po, 10 mg/kg, PO 10 mg/kg, 6 h, mean of 3 rats (BLQ = 0), read-out: Plasma concentration, mean
  concentration at 6 h: 1.7 ng/mL
[1]; male, Sprague Dawley, rat, plasma, po, 10 mg/kg, PO 10 mg/kg, 24 h, mean of 3 rats (BLQ = 0)
  concentration at 24 h: 0 ng/mL
[1]; [3]
  AUC(0-inf): 452 ng·h/mL
  AUC(0-t): 451 ng·h/mL
  Cmax: 1340 ng/mL
  Tmax: 4.8 min
[1]; male, Sprague Dawley, rat, plasma, PO 10 mg/kg vs IV 1 mg/kg, calculated based on AUCt, read-out: F (bioavailability)
  bioavailability: 0.3%
[1]; [4]
  AUC(0-t): 16 ng·h/mL
  Cmax: 7.79 ng/mL
  Tmax: 30 min
[1]; male, Sprague Dawley, rat, plasma, PO 10 mg/kg, % AUC extra >20%: value given for indication
  AUC(0-inf): 23.3 ng·h/mL
[2]; [5]
  Faeces concentration: 3303 ng/g and 3130 ng/g and 3346 ng/g
  Faeces concentration (homogenate): 826 ng/mL and 783 ng/mL and 836 ng/mL
  Recovery in faeces: 10.9% and 15.9%
  Total amount of compound in faeces: 30095 ng and 28426 ng and 38053 ng
[2]; IV 1 mg/kg, mean of 3 rats
  Faeces concentration (homogenate), mean: 815 ng/mL
  Faeces concentration, mean: 3260 ng/g
  Total amount of compound in faeces, mean: 32191 ng
[2]; [6]
  Faeces concentration: 103917 ng/g and 165663 ng/g and 132537 ng/g
  Faeces concentration (homogenate): 25979 ng/mL and 41416 ng/mL and 33134 ng/mL
  Recovery in faeces: 57.9% and 49.3%
  Total amount of compound in faeces: 1203583 ng and 1389086 ng and 1183679 ng
[2]; PO 10 mg/kg, mean of 3 rats
  Faeces concentration (homogenate), mean: 33510 ng/mL
  Faeces concentration, mean: 134039 ng/g
  Total amount of compound in faeces, mean: 1258783 ng
[2]; iv, 1 mg/kg, IV 1 mg/kg, individual rats IV1-IV3, read-out: Recovery in faeces
  dose excreted: 13.1%
[2]; iv, 1 mg/kg, IV 1 mg/kg, mean of 3 rats, read-out: Recovery in faeces, mean
  dose excreted: 13.3%
[2]; po, 10 mg/kg, PO 10 mg/kg, individual rats PO4-PO6, read-out: Recovery in faeces
  dose excreted: 50.1%
